Test results: patent US20100216981A1 (Nippon Soda Co., Ltd., priority 2007, published 2010)

B1: biotinylated siRNA 21 bp (dsRNA)
RNA 1: UUGCUCAACAGUAUGGGCAUU
RNA 2: UGCCCAUACUGUUGAGCAAUU

How the values were obtained:
[1] = biological target: PTGS-SP p19 of TBSV (Tomato bushy stunt virus, UniProt P11690); assay: Surface plasmon resonance (Biacore) inhibition of siRNA binding to p19; settings: read-out: Binding inhibition rate (%) Biacore p19 25 ppm
[2] = biological target: TAV-2b (Tomato aspermy virus, UniProt Q8UYT3); assay: Surface plasmon resonance (Biacore) inhibition of siRNA binding to TAV-2b; settings: read-out: Binding inhibition rate (%) Biacore TAV2b 25 ppm
[3] = biological target: synthetic peptide of tat (HIV tat) (Human immunodeficiency virus type 1 group M subtype B, UniProt P04610, P77S); assay: Gel shift assay, inhibition of siRNA binding to synthetic peptide of tat; settings: compound 100 ppm; synthetic peptide of tat 500 nM
[4] = biological target: T1, tat synthetic peptide (arginine-rich portion) (Human immunodeficiency virus, UniProt P69698 SEQ:1-34); assay: EMSA; peptide 500 nM, siRNA 500 uM as printed, 0.005% BSA, 25 C; binding inhibited by small molecules; settings: protein: synthetic; tags: chemically synthesised peptide, Biologica Co., 98% purity; label: 3'-biotin on sense strand; siRNA duplex of two 21-mers
T1 chain: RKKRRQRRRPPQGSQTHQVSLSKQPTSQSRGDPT

[5] = biological target: T2, p19 (PTGS suppressor) (Tomato bushy stunt virus, UniProt P11690 P11690:1-172); assay: SPR; siRNA on SA chip; 10 mM HEPES pH 7.4, 150 mM NaCl, 3 mM EDTA; p19 about 10 ug/ml; free siRNA 0.1 uM competes (positive control); small molecules inhibit binding; settings: tags: His-tag (pCold I), FLAG; chain copies: 2; label: 3'-biotin on sense strand; siRNA duplex of two 21-mers
T2 sequence: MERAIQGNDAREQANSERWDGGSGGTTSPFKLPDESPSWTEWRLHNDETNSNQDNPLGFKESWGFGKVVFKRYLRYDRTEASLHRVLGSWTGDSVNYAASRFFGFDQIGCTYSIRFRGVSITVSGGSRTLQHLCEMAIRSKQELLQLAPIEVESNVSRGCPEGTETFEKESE

[6] = biological target: T3, 2b (PTGS suppressor) (Tomato aspermy virus, UniProt Q8UYT3 Q8UYT3:1-95); assay: SPR; siRNA on SA chip; 10 mM HEPES pH 7.4, 150 mM NaCl, 3 mM EDTA; 2b about 10 ug/ml; free siRNA 0.1 uM competes (positive control); small molecules inhibit binding; settings: tags: FLAG (MBP removed with Factor Xa); label: 3'-biotin on sense strand; siRNA duplex of two 21-mers
T3 sequence: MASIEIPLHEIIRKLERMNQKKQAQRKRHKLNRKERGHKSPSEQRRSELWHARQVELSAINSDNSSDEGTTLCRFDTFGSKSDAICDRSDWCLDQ

| Molecule | inhibition at 25 ppm [1] [%] | inhibition at 25 ppm [2] [%] | Binding inhibition rate (%) Gel shift tat 100 ppm [3] [%] | binding result [4] | binding result [5] | binding result [6] |
| --- | --- | --- | --- | --- | --- | --- |
| CCOC(=O)C1CCCC1=O (centres unmarked) [Compound 3] | 0 | 90 | – | – | – | – |
| COC1=C(OC)C(=O)C(C)=CC1=O [Compound 16] | 80 | 0 | 0 | – | – | – |
| Cc1occc(=O)c1O [Compound 19] | 90 | 50 | 0 | – | – | – |
| NC1=CC(=O)CCC1 [Compound 18] | 90 | 80 | 0 | – | – | – |
| COc1c(OC)c(=O)c1=O [Compound 1] | 80 | 80 | 10 | – | – | – |
| O=C1CCCCC1 [Compound 10] | 70 | 50 | – | – | – | – |
| CC1(C)C(=O)C(C)(C)C1=O [Compound 2] | 75 | 0 | – | – | – | – |
| O=C1CCc2ccccc2C1=O [Compound 6] | 100 | 100 | 100 | – | – | – |
| O=C1C=CC(=O)C=C1 [Compound 12] | 100 | 95 | 100 | – | – | – |
| O=C1C=C(O)C(=O)C=C1O [Compound 15] | 95 | 100 | 80 | – | – | – |
| O=C1C=C(Cl)C(=O)C=C1Cl [Compound 14] | – | – | 100 | – | – | – |
| O=c1c(O)c(O)c(=O)c(=O)c1=O [Compound 17] | 100 | 90 | – | – | – | – |
| O=C1CCSC1 [Compound 9] | 95 | 0 | 0 | – | – | – |
| O=C1C=CC(=O)c2c(O)ccc(O)c21 [Compound 20] | 100 | 80 | 100 | – | – | – |
| O=C1CCC(=O)CC1 [Compound 11] | 70 | 20 | – | – | – | – |
| O=C1C=CC(=O)C1 [Compound 5] | 100 | 100 | 100 | – | – | – |
| CC(=O)C1CCCC1=O (centres unmarked) [Compound 4] | 20 | 90 | – | – | – | – |
| O=C1C=C(Cl)C(=O)C(Cl)=C1 [Compound 13] | – | – | 100 | – | – | – |
| B1 | – | – | – | binds | binds | binds |
